Results on 74 compounds are retold here after patent US7727986B2, “Pesticide pyrimidinyloxy substituted phenylamidine derivatives” (Bayer CropScience AG, priority 2005, dated 2010).

One series in a line: logP by HPLC on reversed-phase column (C 18), EEC Directive 79/831 Annex V.A8. The following applies: HPLC, 0.1% aqueous formic acid and acetonitrile, 40° C.; pH 2.3. The series is classed as physicochemical. As for the experimental part:
Temperature: 40° C.; Mobile phases: 0.1% aqueous formic acid and acetonitrile; linear gradient from 10% acetonitrile to 90% acetonitrile.
`CCN(C)C=Nc1cc(C)c(Oc2cc(Cl)ncn2)cc1C` [Compound 15] displayed a logPa of 1.4.
`CCN(C)C=Nc1cc(C)c(Oc2ccnc(N(C)c3ccccc3)n2)cc1C` [Compound 1, N′-{2,5-dimethyl-4-[2-(methyl-phenyl-amino)-pyrimidin-4-yloxy]-phenyl}-N-ethyl-N-methyl-formamidine] returned a logPa of 1.61.
`CCCN(C)C=Nc1cc(C)c(Oc2ncc(Cl)cn2)cc1C` [Compound 96] showed a logPa of 1.48.
Turning to `CCN(C)c1nc(Oc2cc(C)c(N=CN3CCCCC3)cc2C)ncc1Cl` [Compound 101], the logPa was determined as 1.93.
For `CCN(C)C=Nc1cc(C)c(Oc2nc(Cl)ncc2C)cc1C` [Compound 27], the logPa came to 1.42.
The compound `CCCN(C)C=Nc1cc(C)c(Oc2ccnc(N3CCCCC3)n2)cc1C` [Compound 22] registered a logPa of 1.58.
For the compound `Cc1cc(Oc2ccnc(Oc3ccccc3)n2)c(C)cc1N=CN(C)C(C)C` [Compound 66], the logPa was 1.81.
Consider `CCN(C)C=Nc1cc(C)c(Oc2ncc(C)c(C)n2)cc1C` [Compound 93], for which the logPa is on record as 1.19.
Still for that read-out and setting: under `Cc1cc(Oc2cc(Cl)ncn2)c(C)cc1N=CN(C)C(C)C` [Compound 17] stands 1.54.
`CCCN(C)C=Nc1cc(C)c(Oc2cc(C)nc(Cl)n2)cc1C` [Compound 32] yielded a logPa of 1.62.
Still for that read-out and setting: the figure for `CCN(C)C=Nc1cc(C)c(Oc2cc(OC)ncn2)cc1C` [Compound 39] is 1.32; for `CCCN(C)c1cc(Oc2cc(C)c(N=CN(C)CC)cc2C)ncn1` [Compound 49] it is 1.74.
`Cc1cccc(Oc2nccc(Oc3cc(C)c(N=CN4CCCCC4)cc3C)n2)c1` [Compound 80] showed a logPa of 2.16.
Turning to `COc1cc(Oc2cc(C)c(N=CN(C)C(C)C)cc2C)ncn1` [Compound 48], the logPa is 1.49.
`CCCN(C)C=Nc1cc(C)c(Oc2cc(OC)ncn2)cc1C` [Compound 40]: the logPa worked out at 1.47.
`Cc1cc(Oc2ccnc(Cl)n2)c(C)cc1N=CN(C)C(C)C` [Compound 25] gave a logPa of 1.4.
In turn, `CCN(C)C=Nc1cc(C)c(Oc2ccnc(Oc3ccc(C(F)(F)F)cc3)n2)cc1C` [Compound 87] displayed a logPa of 2.37.
The same measure, in the same setting: the figure for `CCN(C)C=Nc1cc(C)c(Oc2ccnc(Oc3ccc(Cl)cc3)n2)cc1C` [Compound 81] is 2.11; for `CCCN(C)C=Nc1cc(C)c(Oc2ccnc(Nc3cccc(Cl)c3)n2)cc1C` [Compound 52] it is 2.06.
Compound `Cc1cc(Oc2ccnc(Nc3cccc(Cl)c3)n2)c(C)cc1N=CN(C)C(C)C` [Compound 29] had a logPa of 2.04.
On the same count and under the same terms, the figure for `COc1ccc(Oc2nccc(Oc3cc(C)c(N=CN4CCCCC4)cc3C)n2)cc1OC` [Compound 74] is 1.80; for `CCCN(C)C=Nc1cc(C)c(Oc2ccnc(OCC)n2)cc1C` [Compound 50] it is 1.55; for `CCN(C)C=Nc1cc(C)c(Oc2ccnc(Nc3cccc(Cl)c3)n2)cc1C` [Compound 30] it is 1.94.
`CCN(C)C=Nc1cc(C)c(Oc2nccc(Oc3ccccc3)n2)cc1C` [Compound 102]: the logPa stood at 1.82.
`CCN(C)C=Nc1cc(C)c(Oc2ccnc(Cl)n2)cc1C` [Compound 23]: the logPa was determined as 1.3.
`CCN(C)C=Nc1cc(C)c(Oc2ccnc(N(C)CC)n2)cc1C` [Compound 10] gave a logPa of 0.82.
On to `CCN(C)C=Nc1cc(C)c(Oc2ccnc(Oc3ccc(OC)c(OC)c3)n2)cc1C` [Compound 71], for which the logPa is reported as 1.65.
Compound `CCCN(C)C=Nc1cc(C)c(Oc2nc(Cl)ncc2C)cc1C` [Compound 28] showed a logPa of 1.68.
As for `CCc1ncnc(Oc2cc(C)c(N=CN3CCCC3)cc2C)c1Cl` [Compound 86], the logPa was 1.87.
Regarding `Cc1cc(Oc2ccnc(Oc3ccccc3)n2)c(C)cc1N=CN(C)C` [Compound 63], the logPa came to 1.65.
Consider `Cc1cc(Oc2cc(Cl)nc(C(C)(C)C)n2)c(C)cc1N=CN(C)C(C)C` [Compound 60], for which the logPa is given as 2.8.
The same measure, in the same setting: under `Cc1cc(Oc2cc(C)c(N=CN3CCCCC3)cc2C)nc(Oc2ccccc2)n1` [Compound 75] stands 2.09; under `CCN(C)C=Nc1cc(C)c(Oc2ncc(Cl)cn2)cc1C` [Compound 95], 1.32.
Still for that read-out and setting: the figure for `CCN(C)C=Nc1cc(C)c(Oc2cc(Cl)nc(C(C)(C)C)n2)cc1C` [Compound 59] is 2.61; for `CCN(C)C=Nc1cc(C)c(Oc2ccnc(Oc3ccccc3)n2)cc1C` [Compound 72] it is 1.96; for `CCN(C)C=Nc1cc(C)c(Oc2ccnc(Oc3ccccc3)n2)cc1C` [Compound 35] it is 1.68.
For `CCN(C)C=Nc1cc(C)c(Oc2ccnc(N3CCOCC3)n2)cc1C` [Compound 19], the logPa is reported as 1.3.
On the same count and under the same terms, under `CCN(C)C=Nc1cc(C)c(Oc2nc(Cl)ncc2Cl)cc1C` [Compound 64] stands 1.67; under `CCCN(C)C=Nc1cc(C)c(Oc2ncc(C)c(C)n2)cc1C` [Compound 94], 1.4; under `Cc1cc(Oc2ccnc(Oc3ccc(C(C)(C)C)cc3)n2)c(C)cc1N=CN1CCCCC1` [Compound 78], 2.75.
`CCN(C)C=Nc1cc(C)c(Oc2ccnc(OC)n2)cc1C` [Compound 11] gave a logPa of 1.16.
`CCCN(C)C=Nc1cc(C)c(Oc2ccnc(N3CCOCC3)n2)cc1C` [Compound 20] returned a logPa of 3.13.
`CCCN(C)C=Nc1cc(C)c(Oc2ccnc(Cl)n2)cc1C` [Compound 24]: the logPa was determined as 1.44.
As for `CCN(C)C=Nc1cc(C)c(Oc2ccnc(Oc3ccc(C(C)(C)C)cc3)n2)cc1C` [Compound 77], the logPa came to 2.65.
The compound `CCCN(C)c1cc(Oc2cc(C)c(N=CN(C)C(C)C)cc2C)ncn1` [Compound 53] displayed a logPa of 1.77.
The same measure, in the same setting: under `CCCN(C)C=Nc1cc(C)c(Oc2cc(N(C)CC)ncn2)cc1C` [Compound 42] stands 1.6.
`CCN(C)C=Nc1cc(C)c(Oc2nccc(Oc3cccc(Cl)c3)n2)cc1C` [Compound 103] came in with a logPa of 2.13.
Regarding `CCCN(C)C=Nc1cc(C)c(Oc2ccnc(OC)n2)cc1C` [Compound 12], the logPa amounted to 1.38.
Compound `Cc1cc(Oc2nc(Cl)ncc2C)c(C)cc1N=CN(C)C(C)C` [Compound 46] had a logPa of 1.62.
Still for that read-out and setting: the figure for `CCN(C)C=Nc1cc(C)c(Oc2cc(Cl)nc(Cl)n2)cc1C` [Compound 69] is 1.67; for `CCN(C)c1nc(Oc2cc(C)c(N=CN(C)C(C)C)cc2C)ncc1Cl` [Compound 99] it is 1.98.
The same measure, in the same setting: the figure for `CCN(C)c1cc(Oc2cc(C)c(N=CN(C)C(C)C)cc2C)ncn1` [Compound 45] is 1.56.
The compound `CCCN(C)C=Nc1cc(C)c(Oc2ccnc(N(C)C)n2)cc1C` [Compound 38] had a logPa of 0.89.
`CCCN(C)C=Nc1cc(C)c(Oc2nccc(C(F)(F)F)n2)cc1C` [Compound 98]: the logPa is 1.7.
On to `CCOc1nccc(Oc2cc(C)c(N=CN(C)CC)cc2C)n1` [Compound 47], for which the logPa is 1.47.
The same measure, in the same setting: under `COc1nccc(Oc2cc(C)c(N=CN(C)C(C)C)cc2C)n1` [Compound 26] stands 1.4; under `CCCN(C)C=Nc1cc(C)c(Oc2cc(N(C)CCC)ncn2)cc1C` [Compound 51], 1.79.
As to `CCN(C)C=Nc1cc(C)c(Oc2cc(C)nc(Oc3ccccc3)n2)cc1C` [Compound 73], the logPa is recorded as 1.99.
In turn, `CCN(C)C=Nc1cc(C)c(Oc2ccnc(Oc3cccc(C)c3)n2)cc1C` [Compound 79] showed a logPa of 2.02.
`CCc1ncnc(Oc2cc(C)c(N=CN(C)CC)cc2C)c1Cl` [Compound 83] had a logPa of 1.91.
The same measure, in the same setting: under `Cc1cc(Oc2ncc(Cl)cn2)c(C)cc1N=CN(C)C(C)C` [Compound 97] stands 1.41.
For the compound `Cc1cc(Oc2ccnc(Oc3cccc(Cl)c3)n2)c(C)cc1N=CN(C)C(C)C` [Compound 68], the logPa amounted to 2.12.
In the case of `CCN(C)C=Nc1cc(C)c(Oc2ccnc(N3CCCCC3)n2)cc1C` [Compound 21], the logPa was determined as 1.4.
`CCCN(C)c1nccc(Oc2cc(C)c(N=CN(C)CC)cc2C)n1` [Compound 13] gave a logPa of 1.25.
For `CCCN(C)C=Nc1cc(C)c(Oc2ccnc(Oc3cccc(Cl)c3)n2)cc1C` [Compound 67], the logPa is recorded as 2.14.

Staying with this series, now noted: measured at pH = 4 (footnote a).
On to `CCN(C)C=Nc1cc(C)c(Oc2nccc(C(F)(F)F)n2)cc1C` [Compound 90], for which the logPa is reported as 0.22^a.
Same read-out and setting: under `CCN(C)C=Nc1cc(C)c(Oc2cc(-c3cccc(C(F)(F)F)c3)ncn2)cc1C` [Compound 6] stands 3.19^a; under `CCN(C)C=Nc1cc(C)c(Oc2cc(Oc3cccc(C(F)(F)F)c3)ncn2)cc1C` [Compound 5], 4.35^a.
Take `CCN(C)C=Nc1cc(C)c(Oc2cc(C(C)(C)C)ncn2)cc1C` [Compound 4]: the logPa is 1.98^a.

The same series, now with this note: pH 2.3.
Turning to `Cc1cc(Oc2ccnc(Cl)n2)c(C)cc1N` [4-(2-chloro-pyrimidin-4-yloxy)-2.5-dimethyl-phenylamine], the “log P (pH 2.3)” value was 1.37.

Staying with this series, now noted: reversed-phase C18 HPLC column; pH 2.3; value in preparation example text; read-out: log P (pH 2.3).
Turning to `CCN(C)C=Nc1cc(C)c(Oc2ccnc(N(C)c3ccccc3)n2)cc1C` [Compound 1, N′-{2,5-dimethyl-4-[2-(methyl-phenyl-amino)-pyrimidin-4-yloxy]-phenyl}-N-ethyl-N-methyl-formamidine], the chromatographic logP turned out to be 1.61.
For `CCN(C)c1nc(Oc2cc(C)c([N+](=O)[O-])cc2C)ncc1Cl` [5-chloro-2-(2,5-dimethyl-4-nitrophenoxy)-N-ethyl-N-methylpyrimidin-4-amine], the chromatographic logP was 4.07.
In the case of `Cc1cc(Oc2ccnc(Oc3cccc(Cl)c3C)n2)c(C)cc1N` [4-[2-(3-chloro-2-methyl-phenoxy)-pyrimidin-4-yloxy]-2,5-dimethyl-phenylamine], the chromatographic logP worked out at 2.81.
On to `Cc1cc(Oc2ccnc(N(C)c3ccccc3)n2)c(C)cc1N` [[4-(4-Amino-2,5-dimethyl-phenoxy)-pyrimidin-2-yl]-methyl-phenyl-amine], for which the chromatographic logP came out at 1.72.
For the compound `CCN(C)c1nc(Oc2cc(C)c(N)cc2C)ncc1Cl` [2-(4-amino-2,5-dimethylphenoxy)-5-chloro-N-ethyl-N-methylpyrimidin-4-amine], the chromatographic logP was 1.88.
